Measurements published in patent US6858591B2, “Antibiotic AA 896 analogs” (Wyeth Holdings Corporation, priority 2001, dated 2005).
In brackets after ≈: the same amount, converted by molar mass. Like-named read-outs stand apart in the source and are kept apart here.

Legend:
Assay in all cases: In vitro MIC, broth dilution
Assay type in all cases: cell-based
CNS GC 4547 = tested on: CNS GC 4547
Method in brief: (§1)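 Organisms were inoculated at 5×10^5 CFU/ml into Mueller-Hinton II containing antibiotic at 64-0.06 μg/ml, then incubated 18 hours at 35° C in ambient air. The MIC was the lowest concentration that inhibited growth.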

CNS GC 4537 = tested on: CNS GC 4537
Method in brief: as §1

E. faecalis GC 842 = details: Enterococcus faecalis, GC842; E. faecalis GC 842; read-out: MIC
Method in brief: as §1

E. faecalis GC 2242 = details: Enterococcus faecalis, GC2242; E. faecalis GC 2242; read-out: MIC
Method in brief: as §1

CNS GC 4538 = tested on: CNS GC 4538
Method in brief: as §1

S. aureus GC 4536 = details: Staphylococcus aureus, GC4536; S. aureus GC 4536; read-out: MIC
Method in brief: as §1

S. aureus GC 2216 = details: Staphylococcus aureus, GC2216; S. aureus GC 2216; read-out: MIC
Method in brief: as §1

E. faecalis GC 4555 = details: Enterococcus faecalis, GC4555; E. faecalis GC 4555; read-out: MIC
Method in brief: as §1

S. aureus GC 1131 = details: Staphylococcus aureus, GC1131; S. aureus GC 1131; read-out: MIC
Method in brief: as §1

E. coli GC 2203 = details: Escherichia coli, GC2203; E. coli GC 2203; read-out: MIC
E. coli GC 4559 = details: Escherichia coli, GC4559; E. coli GC 4559; read-out: MIC
E. coli GC 4560 = details: Escherichia coli, GC4560; E. coli GC 4560; read-out: MIC
K. pneumoniae GC 4534 = details: Klebsiella pneumoniae, GC4534; K. pneumoniae GC 4534; read-out: MIC
P. aeruginosa GC 2214 = details: Pseudomonas aeruginosa, GC2214; P. aeruginosa GC 2214; read-out: MIC
S. marcescens GC 4077 = details: Serratia marcescens, GC4077; S. marcescens GC 4077; read-out: MIC
P. aeruginosa GC 4532 = details: Pseudomonas aeruginosa, GC4532; P. aeruginosa GC 4532; read-out: MIC
E. cloacae GC 3783 = details: Enterobacter cloacae, GC3783; E. cloacae GC 3783; read-out: MIC
E. coli GC 3226 = details: Escherichia coli, GC3226; E. coli GC 3226; read-out: MIC
C. albicans GC 3066 = details: Candida albicans, GC3066; C. albicans GC 3066; read-out: MIC
M. morganii GC 4531 = details: Morganella morganii, GC4531; M. morganii GC 4531; read-out: MIC

| Structure (SMILES) | MIC (CNS GC 4547; CNS GC 4547, read-out: MIC) | MIC (CNS GC 4537; CNS GC 4537, read-out: MIC) | MIC (E. faecalis GC 842) | MIC (E. faecalis GC 2242) | MIC (CNS GC 4538; CNS GC 4538, read-out: MIC) | MIC (S. aureus GC 4536) | MIC (S. aureus GC 2216) | MIC (E. faecalis GC 4555) | MIC (S. aureus GC 1131) | MIC (E. coli GC 2203) | MIC (E. coli GC 4559) | MIC (E. coli GC 4560) | MIC (K. pneumoniae GC 4534) | MIC (P. aeruginosa GC 2214) | MIC (S. marcescens GC 4077) | MIC (P. aeruginosa GC 4532) | MIC (E. cloacae GC 3783) | MIC (E. coli GC 3226) | MIC (C. albicans GC 3066) | MIC (M. morganii GC 4531) | further results |
| --- | --- | --- | --- | --- | --- | --- | --- | --- | --- | --- | --- | --- | --- | --- | --- | --- | --- | --- | --- | --- | --- |
| CCOC(=O)C(NCCCNC(=O)[C@@H](N)[C@H](C)O)[C@@H](O)[C@H]1O[C@@H](n2ccc(=O)[nH]c2=O)[C@H](OC(C)=O)[C@@H]1OC(C)=O (stereo partly drawn) [Example 33, Ethyl (3R)-2-[(3-{[(2S,3S)-2-amino-3-hydroxybutanoyl]amino}propyl)amino]-3-[(2R,3R,4R,5R)-3,4-bis(acetyloxy)-5-(2,4-dioxo-3,4-dihydro-1(2H)-pyrimidinyl)tetrahydro-2-furanyl]-3-hydroxypropanoate] | > 128 µg/mL | > 128 µg/mL | > 128 µg/mL | > 128 µg/mL | > 128 µg/mL | > 128 µg/mL | > 128 µg/mL | > 128 µg/mL | > 128 µg/mL | > 128 µg/mL | > 128 µg/mL | > 128 µg/mL | > 128 µg/mL | > 128 µg/mL | > 128 µg/mL | > 128 µg/mL | > 128 µg/mL | > 128 µg/mL | > 128 µg/mL | > 128 µg/mL |  |
| CCOC(=O)C(NCCCNC(=O)[C@@H](NC(=O)[C@H](CCCNC(=N)N[N+](=O)O)NC(=O)N[C@H](C(=O)OCc1ccccc1)C(C)C)C(C)O)C(O)[C@H]1O[C@H](n2ccc(=O)[nH]c2=O)[C@H](OC(C)=O)[C@@H]1OC(C)=O (stereo partly drawn) [Example 34, 16-Benzyl 2-ethyl (1R,9S,12S,16S)-1-[(2R,3R,4R,5S)-3,4-bis(acetyloxy)-5-(2,4-dioxo-3,4-dihydro-1(2H)-pyrimidinyl)tetrahydro-2-furanyl]-12-(3-{[(2,2-dioxido-2lambda˜1˜-diazanyl)(imino)methyl]amino}propyl)-1-hydroxy-9-[(1S)-1-hydroxyethyl]-17-methyl-8,11,14-trioxo-3,7,10,13,15-pentaazaoctadecane-2,16-dicarboxylate] |  |  | > 128 µg/mL | 128 µg/mL |  | > 128 µg/mL | > 128 µg/mL | > 128 µg/mL | > 128 µg/mL | > 128 µg/mL | > 128 µg/mL | > 128 µg/mL | > 128 µg/mL | 128 µg/mL | > 128 µg/mL | 128 µg/mL | > 128 µg/mL | > 128 µg/mL | 128 µg/mL | > 128 µg/mL | MIC (CNS GC 4547): > 128 µg/mL; MIC (CNS GC 4537): > 128 µg/mL; MIC (CNS GC 4538): > 128 µg/mL |
| CCOC(=O)C(NCCCNC(=O)[C@@H](NC(=O)[C@H](CCCNC(=N)N[N+](=O)[O-])NC(=O)N[C@H](C(=O)OCc1ccccc1)C(C)C)C(C)O)C(O)[C@H]1O[C@@H](n2ccc(=O)[nH]c2=O)[C@H](OC(C)=O)[C@@H]1OC(C)=O (some centres unmarked) [Example 35] |  |  | > 128 µg/mL | 128 µg/mL (≈ 125 µM) |  | > 128 µg/mL | > 128 µg/mL | > 128 µg/mL | > 128 µg/mL | > 128 µg/mL | > 128 µg/mL | > 128 µg/mL | > 128 µg/mL | 128 µg/mL (≈ 125 µM) | > 128 µg/mL | 128 µg/mL (≈ 125 µM) | > 128 µg/mL | > 128 µg/mL | 128 µg/mL (≈ 125 µM) | 128 µg/mL (≈ 125 µM) | MIC (CNS GC 4547): > 128 µg/mL; MIC (CNS GC 4537): > 128 µg/mL; MIC (CNS GC 4538): > 128 µg/mL |
| CCOC(=O)C(NCCCNC(=O)[C@@H](NC(=O)OCc1ccccc1)[C@@H](O)C(C)C)[C@@H](O)[C@H]1O[C@@H](n2ccc(=O)[nH]c2=O)[C@H](OC(C)=O)[C@@H]1OC(C)=O (stereo partly drawn) [Example 36, Ethyl (5S)-12-[(R)-[(2R,3R,4R,5R)-3,4-bis(acetyloxy)-5-(2,4-dioxo-3,4-dihydro-1(2H)-pyrimidinyl)tetrahydro-2-furanyl](hydroxy)methyl]-5-[(1S)-1-hydroxy-2-methylpropyl]-3,6-dioxo-1-phenyl-2-oxa-4,7,11-triazatridecan-13-oate] | > 128 µg/mL | > 128 µg/mL | > 128 µg/mL | 128 µg/mL (≈ 171 µM) | > 128 µg/mL | > 128 µg/mL | > 128 µg/mL | > 128 µg/mL | > 128 µg/mL | > 128 µg/mL | > 128 µg/mL | > 128 µg/mL | > 128 µg/mL | 128 µg/mL (≈ 171 µM) | > 128 µg/mL | 128 µg/mL (≈ 171 µM) | > 128 µg/mL | > 128 µg/mL | 128 µg/mL (≈ 171 µM) | 128 µg/mL (≈ 171 µM) |  |
| CCOC(=O)C(NCCCNC(=O)[C@@H](NC(=O)[C@H](CCCNC(=N)N[N+](=O)O)NC(=O)N[C@H](C(=O)OCc1ccccc1)C(C)C)[C@@H](O)C(C)C)C(O)[C@H]1O[C@@H](n2ccc(=O)[nH]c2=O)[C@H](OC(C)=O)[C@@H]1OC(C)=O (stereo partly drawn) [Example 37, 16-Benzyl 2-ethyl (1R,9S,12S,16S)-1-[(2R,3R,4R,5R)-3,4-bis(acetyloxy)-5-(2,4-dioxo-3,4-dihydro-1(2H)-pyrimidinyl)tetrahydro-2-furanyl]-12-(3-{[(2,2-dioxido-2lambda˜1˜-diazanyl)(imino)methyl]amino}propyl)-1-hydroxy-9-[(1S)-hydroxy-2-methylpropyl]-17-methyl-8,11,14-trioxo-3,7,10,13,15-pentaazaoctadecane-2,16-dicarboxylate] |  |  | > 128 µg/mL | 128 µg/mL |  | > 128 µg/mL | > 128 µg/mL | > 128 µg/mL | > 128 µg/mL | > 128 µg/mL | > 128 µg/mL | > 128 µg/mL | > 128 µg/mL | > 128 µg/mL | > 128 µg/mL | > 128 µg/mL | > 128 µg/mL | > 128 µg/mL | > 128 µg/mL | > 128 µg/mL | MIC (CNS GC 4547): > 128 µg/mL; MIC (CNS GC 4537): > 128 µg/mL; MIC (CNS GC 4538): > 128 µg/mL |

Further lines, with some results ahead:

| MIC (CNS GC 4547; CNS GC 4547, read-out: MIC) | MIC (CNS GC 4537; CNS GC 4537, read-out: MIC) | MIC (E. faecalis GC 842) | MIC (E. faecalis GC 2242) | MIC (CNS GC 4538; CNS GC 4538, read-out: MIC) | MIC (S. aureus GC 4536) | MIC (S. aureus GC 2216) | MIC (E. faecalis GC 4555) | MIC (S. aureus GC 1131) | MIC (E. coli GC 2203) | MIC (E. coli GC 4559) | MIC (E. coli GC 4560) | MIC (K. pneumoniae GC 4534) | MIC (P. aeruginosa GC 2214) | MIC (S. marcescens GC 4077) | MIC (P. aeruginosa GC 4532) | MIC (E. cloacae GC 3783) | MIC (E. coli GC 3226) | MIC (C. albicans GC 3066) | MIC (M. morganii GC 4531) | Structure (SMILES) | further results |
| --- | --- | --- | --- | --- | --- | --- | --- | --- | --- | --- | --- | --- | --- | --- | --- | --- | --- | --- | --- | --- | --- |
| > 128 µg/mL | > 128 µg/mL | > 128 µg/mL | > 128 µg/mL | > 128 µg/mL | > 128 µg/mL | > 128 µg/mL | > 128 µg/mL | > 128 µg/mL | > 128 µg/mL | > 128 µg/mL | > 128 µg/mL | > 128 µg/mL | > 128 µg/mL | > 128 µg/mL | > 128 µg/mL | > 128 µg/mL | > 128 µg/mL | > 128 µg/mL | > 128 µg/mL | CCOC(=O)C(NCCCNC(=O)[C@H](CC(C)C)NC(=O)OCc1ccccc1)C(OC(C)=O)[C@H]1O[C@H](n2ccc(=O)[nH]c2=O)[C@H](OC(C)=O)[C@@H]1OC(C)=O (stereo partly drawn) [Example 38a, Ethyl (5S)-12-{(R)-(acetyloxy)[(2R,3R,4R,5S)-3,4-bis(acetyloxy)-5-(2,4-dioxo-3,4-dihydro-1(2H)-pyrimidinyl)tetrahydro-2-furanyl]methyl}-5-isobutyl-3,6-dioxo-1-phenyl-2-oxa-4,7,11-triazatridecan-13-oate] |  |
| > 128 µg/mL | > 128 µg/mL | > 128 µg/mL | > 128 µg/mL | > 128 µg/mL | > 128 µg/mL | > 128 µg/mL | > 128 µg/mL | > 128 µg/mL | > 128 µg/mL | > 128 µg/mL | > 128 µg/mL | > 128 µg/mL | > 128 µg/mL | > 128 µg/mL | > 128 µg/mL | > 128 µg/mL | > 128 µg/mL | > 128 µg/mL | > 128 µg/mL | CCOC(=O)C(NCCCNC(=O)[C@H](CC(C)C)NC(=O)OCc1ccccc1)C(OC(C)=O)[C@H]1O[C@@H](n2ccc(=O)[nH]c2=O)[C@H](OC(C)=O)[C@@H]1OC(C)=O (stereo partly drawn) [Example 38b, Ethyl (5S)-12-{(R)-(acetyloxy)[(2R,3R,4R,5R)-3,4-bis(acetyloxy)-5-(2,4-dioxo-3,4-dihydro-1(2H)-pyrimidinyl)tetrahydro-2-furanyl]methyl}-5-isobutyl-3,6-dioxo-1-phenyl-2-oxa-4,7,11-triazatridecan-13-oate] |  |
